The assay deals with gastric acid secretion. As to the kind of experiment: Lumen perfused stomach of the anaesthetized rat: inhibition of acid secretion evoked by histamine plus acetylcholine. The conditions noted are these: drug alone. The class given is in vivo. The method, then:
Experiments in lumen perfused stomach of the anaesthetized rat were performed, evoking acid secretion by histamin (0.5 mg/kg/h i.v.) and acetylcholine (0.5 mg/kg/h i.v.) given in combination. These two combined secretagogues evoked a response which was about 80% of the maximal effect achievable by maximally effective dose of either acetylcholine (8 mg/kg/h i.v.) or histamine (8 mg/kg/h i.v.) alone.
As soon as a steady level of acid output was reached, a combination of mifentidine/pirenzepine (1:10), or of DA-5047/pirenzepine (1:10) under the form of the compositions of the present invention, or mifentidine, DA-5047 and pirenzepine alone were administered intravenously. Each dose was administered to 8 animals.
The obtained data were submitted to linear regression analysis in order to calculate the dose inhibiting 50% (ED₅₀) the response of which is reported in the following table II: […]

Results on three molecules are retold here after patent publication EP0279787A1, “Pharmaceutical compositions with synergistic antisecretory action for the healing of gastroduodenal ulcer” (ISTITUTO DE ANGELI S.p.A., priority 1987, dated 1988).

Structures are written as SMILES.

In the case of `Cc1nc(-c2ccc(N=CNC(C)C)cc2)c[nH]1` [DA-5047, N-isopropyl-Nʹ-[4-(2- -methyl-imidazol-4-yl)phenyl]-formamidine], the Percent inhibition was 21% (dose 20 µg/kg i.v.), 34% (dose 40 µg/kg i.v.) and 52% (dose 80 µg/kg i.v.).
As for `CN1CCN(CC(=O)N2c3ccccc3C(=O)Nc3cccnc32)CC1` [Pirenzepine, reference compound], the Percent inhibition runs as follows: (dose 200 µg/kg i.v.) 28%; (dose 400 µg/kg i.v.) 46%; (dose 800 µg/kg i.v.) 62%.
`CC(C)NC=Nc1ccc(-c2c[nH]cn2)cc1` [Mifentidine, N-isopropyl-Nʹ-[4-(imidazol-4-yl)phenyl]-formamidines]: the Percent inhibition is, setting by setting: (dose 20 µg/kg i.v.) 20%; (dose 40 µg/kg i.v.) 36%; (dose 80 µg/kg i.v.) 58%.
